In ChEMBL document CHEMBL1151356, “An investigation of the antitumor activity of Sesbania drummondii” (1981):
Active and inactive are the calls of the source. The rule behind the calls is not given here.

System: P388
Assay: In vivo cytotoxicity against mouse P388 cells up to 1.4 mg/kg relative to control
Type: functional, organism-based
Set-up: dose 1.4 mg/kg

For O=C1NC(=O)[C@@]2(CC[C@@H](O)C2)c2ccncc21, the Activity was “inactive”.
